Measurements from patent US20240116985A1, “STAPLED PEPTIDES AND METHODS THEREOF” (priority 2020, published 2024).
Read-outs that look alike come from different tables or passages of the source.

Legend:
[1] = biological target: T1, beta-catenin/TCF4 engagement (Homo sapiens, UniProt P35222); experiment: Nano-BRET target engagement assay (B-cat-Halo & TCF4-Luc in HEK293 cells); assay type: cell-based
T1 construct: expressed in transfected cells; host or cells: HEK293
T1 sequence (P35222 1-781): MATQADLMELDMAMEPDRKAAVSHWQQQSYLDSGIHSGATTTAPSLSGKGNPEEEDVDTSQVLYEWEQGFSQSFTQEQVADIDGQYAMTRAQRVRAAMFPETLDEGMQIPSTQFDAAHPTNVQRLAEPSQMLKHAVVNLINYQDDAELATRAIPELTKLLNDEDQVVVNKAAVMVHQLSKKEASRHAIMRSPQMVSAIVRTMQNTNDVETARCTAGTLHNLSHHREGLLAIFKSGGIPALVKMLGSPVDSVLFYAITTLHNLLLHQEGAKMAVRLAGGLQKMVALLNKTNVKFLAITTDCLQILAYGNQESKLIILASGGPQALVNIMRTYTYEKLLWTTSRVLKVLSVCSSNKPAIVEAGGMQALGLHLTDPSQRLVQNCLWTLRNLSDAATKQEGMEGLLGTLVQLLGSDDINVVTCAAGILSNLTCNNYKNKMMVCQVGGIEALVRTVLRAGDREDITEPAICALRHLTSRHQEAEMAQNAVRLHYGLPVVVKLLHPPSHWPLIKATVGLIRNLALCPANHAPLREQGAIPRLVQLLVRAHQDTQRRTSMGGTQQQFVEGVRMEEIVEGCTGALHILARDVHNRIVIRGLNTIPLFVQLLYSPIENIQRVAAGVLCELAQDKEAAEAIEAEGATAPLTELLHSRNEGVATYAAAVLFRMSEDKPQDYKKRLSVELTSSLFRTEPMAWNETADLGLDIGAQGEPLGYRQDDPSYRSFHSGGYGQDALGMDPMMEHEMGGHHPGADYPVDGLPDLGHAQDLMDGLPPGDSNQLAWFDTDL

CHI Log D procedure = assay type: physicochemical
[2] = biological target: T2, full-length beta-Catenin (Uniprot ID P35222) (Homo sapiens, UniProt P35222); experiment: Fluorescence polarization IC50 (beta-catenin / 5FAM-TCF4 10-53 competition); assay type: binding
T2 construct: 10 nM full-length beta-Catenin (Uniprot ID P35222)
T2 sequence (P35222 1-781): T1 sequence (P35222 1-781)

[3] = fluorescence polarization, beta-catenin, read-out: FP EC50
[4] = fluorescence polarization, read-out: beta-Catenin FP IC50

Row | IC50 ([1]; read-out: NanoBRET Abs IC50) | chromatographic logD (CHI Log D procedure; pH 7.4, CHI Log D) | IC50 ([2]; read-out: beta-Catenin FP IC50) | CHI Log D (CHI Log D procedure; pH 7.4) | Structure (SMILES) | also measured
1 | 22.2 µM | 3.03 | 168 nM | – | CC(=O)N1CCC[C@]12CC=CCCCC1(CCCC=CCCCCCC[C@@](C)(C(=O)N[C@@H](Cc3cccc(Cl)c3)C(=O)N[C@@H](Cc3csc4ccccc34)C(=O)N[C@@H](CCC(N)=O)C(N)=O)NC(=O)[C@H](CC(N)=O)NC(=O)[C@H](Cc3ccccc3)NC(=O)[C@H](C)NC(=O)[C@H](C)NC(=O)[C@H](CN(CC(=O)O)CC(F)(F)F)NC(=O)[C@H](CC(=O)O)NC1=O)NC(=O)[C@H](CC(C)(C)C)NC(=O)[C@H](CC(=O)O)NC2=O (stereo partly drawn) [I-933, Ac-PL3-Asp-Npg-B5-Asp-TfeGA-Ala-Ala-Phe-Asn-S8-3C1F-BztA-Gln-NH2] | IC50 ([1]; read-out: NanoBRET IC50): > 20 µM
2 | 31.4 µM | – | 9 nM | 2.043 | CC(=O)N1CCC[C@]12CC=CCCCC1(CCCC=CCCCCOC(=O)N3CC[C@@](C(=O)N[C@@H](Cc4ccsc4)C(=O)N[C@@H](Cc4csc5ccccc45)C(=O)N[C@@H](CCC(N)=O)C(N)=O)(C3)NC(=O)[C@H](CC(N)=O)NC(=O)[C@H](Cc3ccccc3)NC(=O)[C@H](C)NC(=O)[C@H](C)NC(=O)[C@H](CC(=O)O)NC(=O)[C@H](CC(=O)O)NC1=O)NC(=O)[C@H](CC(C)(C)C)NC(=O)[C@H](CC(=O)O)NC2=O (stereo partly drawn) [I-768, Ac-PL3-Asp-Npg-B5-Asp-Asp-Ala-Ala-Phe-Asn-PyrS3-3Thi-BztA-Gln-NH2] | IC50 ([2]; read-out: FP EC50): 9 nM
3 | – | – | 5 nM | 2.207 | CC(=O)N1CCC[C@]12CC=CCCCC1(CCCC=CCCCOC(=O)N3CC[C@@](C(=O)N[C@@H](Cc4ccsc4)C(=O)N[C@@H](Cc4csc5ccccc45)C(=O)N[C@@H](CCC(N)=O)C(N)=O)(C3)NC(=O)[C@H](CC(N)=O)NC(=O)[C@H](Cc3ccccc3)NC(=O)[C@H](C)NC(=O)[C@H](C)NC(=O)[C@H](CN(CC(=O)O)CC(F)(F)F)NC(=O)[C@H](CC(=O)O)NC1=O)NC(=O)[C@H](CC(C)(C)C)NC(=O)[C@H](CC(=O)O)NC2=O (stereo partly drawn) [I-761, Ac-PL3-Asp-Npg-B5-Asp-TfeGA-Ala-Ala-Phe-Asn-PyrS2-3Thi-BztA-Gln-NH2] | inhibition at 10 µM ([1]; HEK293, @ 10 uM, read-out: NanoBRET % inh @ 10 uM): 63.4%; IC50 ([1]; read-out: NanoBRET IC50): 5 µM; logD (CHI Log D procedure; pH 7.4): 2.2; IC50 ([2]; read-out: bCat FP IC50): < 5 nM
4 | 6.1 µM | – | 21 nM | 2.38 | CC(=O)N1CCC[C@]12CC=CCCCC1(CCCC=CCCCOC(=O)N3CC[C@@](C(=O)N[C@@H](Cc4ccccc4C(F)(F)F)C(=O)N[C@@H](Cc4csc5ccccc45)C(=O)N[C@@H](CCC(N)=O)C(N)=O)(C3)NC(=O)[C@H](CC(N)=O)NC(=O)[C@H](Cc3ccccc3)NC(=O)[C@H](C)NC(=O)[C@H](C)NC(=O)[C@H](CN(CC(=O)O)CC(F)(F)F)NC(=O)[C@H](CC(=O)O)NC1=O)NC(=O)[C@H](CC(C)(C)C)NC(=O)[C@H](CC(=O)O)NC2=O (stereo partly drawn) [I-928, Ac-PL3-Asp-Npg-B5-Asp-TfeGA-Ala-Ala-Phe-Asn-PyrS2-2F3MeF-BztA-Gln-NH2] | IC50 ([1]; read-out: NanoBRET IC50): 5 µM; IC50 [2, 3]: 21 nM
5 | – | 2.26 | 26 nM | – | CC(=O)N1CCC[C@]12CC=CCCCC1(CCCC=CCCCOC(=O)N3CC[C@@](C(=O)N[C@@H](Cc4ccsc4)C(=O)N[C@@H](Cc4csc5ccccc45)C(=O)N[C@@H](CCC(N)=O)C(N)=O)(C3)NC(=O)[C@H](Cc3ccccc3)NC(=O)[C@H](Cc3ccccc3)NC(=O)[C@H](C)NC(=O)[C@H](C)NC(=O)[C@H](Cc3ccc(C(=O)O)cc3)NC(=O)[C@H](CC(=O)O)NC1=O)NC(=O)[C@H](CC(C)(C)C)NC(=O)[C@H](CC(=O)O)NC2=O (stereo partly drawn) [I-850, Ac-PL3-Asp-Npg-B5-Asp-4COOHF-Ala-Ala-Phe-Phe-PyrS2-3Thi-BztA-Gln-NH2] | IC50 ([1]; absolute IC50, read-out: NanoBRET Abs IC50): 16.4 µM
6 | 4.4 µM | 2.52 | 30 nM | – | CC(=O)N1CCC[C@]12CC=CCCCC1(CCCC=CCCCOC(=O)N3CC[C@@](C(=O)N[C@@H](Cc4ccccc4Cl)C(=O)N[C@@H](Cc4csc5ccccc45)C(=O)N[C@@H](C(N)=O)[C@H](C)O)(C3)NC(=O)[C@H]([C@@H](C)O)NC(=O)[C@H](Cc3ccccc3)NC(=O)[C@H](C)NC(=O)[C@H](C)NC(=O)[C@H](CCC(=O)O)NC(=O)[C@H](CC(=O)O)NC1=O)NC(=O)[C@H](CC(C)(C)C)NC(=O)[C@H](CC(=O)O)NC2=O (stereo partly drawn) [I-1037, Ac-PL3-Asp-Npg-B5-Asp-Glu-Ala-Ala-Phe-Thr-PyrS2-2C1F-BztA-dThr-NH2] | –
7 | – | – | – | – | CC[C@H](C)[C@@H]1NC(=O)[C@H](CC(=O)O)NC(=O)[C@]2(CC=CCCCC3(CCCC=CCCCCCC[C@@](C)(C(=O)N[C@@H](Cc4ccccc4)C(=O)N[C@@H](Cc4csc5ccccc45)C(=O)N[C@@H](CCCCNC(=O)CN=[N+]=[N-])C(N)=O)NC(=O)[C@H](CCC(N)=O)NC(=O)[C@H](Cc4ccccc4)NC(=O)[C@H](C)NC(=O)[C@H](C)NC(=O)[C@H](CCC(=O)O)NC(=O)[C@H](CC(=O)O)NC3=O)NC1=O)CCCN2C(C)=O (stereo partly drawn) [I-595, Ac-PL3-Asp-Ile-B5-Asp-Glu-Ala-Ala-Phe-Gln-S8-Phe-BztA-[AzAc]Lys-NH2] | chromatographic logD (CHI Log D procedure; pH 7.4): 2.64; IC50 ([2]; FP EC50 (nM)): 57 nM
8 | – | 1.99 | – | – | CC(=O)N1CCC[C@]12CC=CCCCC1(CCCC=CCCCCCC[C@@](C)(C(=O)N[C@@H](Cc3ccccc3)C(=O)N[C@@H](Cc3csc4ccccc34)C(=O)N[C@@H](CCC(N)=O)C(N)=O)NC(=O)[C@H](CC(N)=O)NC(=O)[C@H](Cc3ccco3)NC(=O)[C@H](C)NC(=O)[C@H](C)NC(=O)[C@H](CCC(=O)O)NC(=O)[C@H](CC(=O)O)NC1=O)NC(=O)[C@H](C)NC(=O)[C@H](CC(=O)O)NC2=O (stereo partly drawn) [I-460, Ac-PL3-Asp-Ala-B5-Asp-Glu-Ala-Ala-2FurA-Asn-S8-Phe-BztA-Gln-NH2] | IC50 [2, 4]: 195 nM
9 | – | – | – | 2.506 | CC[C@H](C)[C@@H]1NC(=O)[C@H](CC(=O)O)NC(=O)[C@]2(CC=CCCCC3(CCCC=CCCCCCC[C@@](C)(C(=O)N[C@@H](Cc4ccccc4)C(=O)N[C@@H](Cc4csc5ccccc45)C(=O)N[C@@H](CCC(N)=O)C(N)=O)NC(=O)[C@H](CCC(N)=O)NC(=O)[C@H](Cc4ccccc4)NC(=O)[C@H](C)NC(=O)[C@H](C)NC(=O)[C@H](CN(CC)CC(=O)O)NC(=O)[C@H](CC(=O)O)NC3=O)NC1=O)CCCN2C(C)=O (stereo partly drawn) [I-608, Ac-PL3-Asp-Ile-B5-Asp-EtGa-Ala-Ala-Phe-Gln-S8-Phe-BztA-Gln-NH2] | logD (CHI Log D procedure; pH 7.4): 2.5; IC50 [2, 4]: 211 nM; IC50 ([2]; read-out: FP EC50): 211 nM; IC50 ([2]; read-out: bCat FP IC50): 211 nM
10 | – | – | – | 2.819 | CC(=O)N1CCC[C@]12CC=CCCCC1(CCCC=CCCCCCC[C@@](C)(C(=O)N[C@@H](Cc3cccc(F)c3)C(=O)N[C@@H](Cc3csc4ccccc34)C(=O)N[C@@H](CCC(N)=O)C(N)=O)NC(=O)[C@H](C(C)C)NC(=O)[C@H](Cc3ccccc3)NC(=O)[C@H](C)NC(=O)[C@H](C)NC(=O)[C@H](Cc3c[nH]cn3)NC(=O)[C@H](CC(=O)O)NC1=O)NC(=O)[C@H](C)NC(=O)[C@H](CC(=O)O)NC2=O (stereo partly drawn) [I-396, Ac-PL3-Asp-Ala-B5-Asp-His-Ala-Ala-Phe-Val-S8-3FF-BztA-Gln-NH2] | IC50 [2, 3]: 3430 nM; IC50 [2, 4]: 3430 nM

Row | Structure (SMILES) | IC50 ([1]; read-out: NanoBRET Abs IC50) | chromatographic logD (CHI Log D procedure; pH 7.4, CHI Log D) | IC50 ([2]; read-out: beta-Catenin FP IC50) | CHI Log D (CHI Log D procedure; pH 7.4) | also measured
11 | CC[C@H](C)[C@@H]1NC(=O)[C@H](CC(=O)O)NC(=O)[C@]2(CC=CCCCC3(CCCC=CCCCCCC[C@@](C)(C(=O)N[C@@H](Cc4ccccc4)C(=O)N[C@@H](Cc4csc5ccccc45)C(=O)N[C@@H](CCC(N)=O)C(N)=O)NC(=O)[C@H](CCC(N)=O)NC(=O)[C@H](Cc4ccccc4)NC(=O)[C@H](C)NC(=O)[C@H](CCCCNC(=O)CN=[N+]=[N-])NC(=O)[C@H](CCC(=O)O)NC(=O)[C@H](CC(=O)O)NC3=O)NC1=O)CCCN2C(C)=O (stereo partly drawn) [I-591, Ac-PL3-Asp-Ile-B5-Asp-Glu-[AzAc]Lys-Ala-Phe-Gln-S8-Phe-BztA-Gln-NH2] | – | – | – | 2.348 | IC50 ([2]; read-out: FP EC50): 64 nM
